pIC50, pKd: −log10 of the molar value. Positions of bridges follow the written chain, without caps; N, C: chain ends. Residues, ends and D or L forms follow the SMILES beside them. A value given as a limit tells only on which side of the number the result lay.

The results in this text go back to ChEMBL document CHEMBL5360521, “A chemical perspective on the modulation of TEAD transcriptional activities: Recent progress, challenges, and opportunities” (Eur J Med Chem, 2022).

The target in assay [1] is T1, Transcriptional enhancer factor TEF-3 (Homo sapiens, UniProt Q15561). Put plainly: Binding affinity to His-tagged TEAD4 YAP-binding domain (217 to 434 residues) (unknown origin) expressed in Escherichia coli BL21 (DE3) cells by isothermal titration calorimetry. For orientation: ITC needs no label: the signal is the heat of the interaction.
Assay [2] concerns the target T2, Transcriptional enhancer factor TEF-1 (Homo sapiens, UniProt P28347). Put plainly: Inhibition of TEAD1 mediated gene transcription in human MCF7 cells incubated overnight by luciferase reporter assay. Format: cell-based.
In assay [3] the target is T3, Transcriptional enhancer factor TEF-4 (Homo sapiens, UniProt Q15562). Put plainly: Inhibition of His-tagged TEAD2 (unknown origin) preincubated for 30 mins followed by biotinylated lipid pocket addition and measured after 60 mins by TR-FRET assay. Background: Time-resolved FRET reads energy transfer from a long-lived donor to a nearby acceptor.
In assay [4] the target is Transcriptional enhancer factor TEF-5 (Homo sapiens, UniProt Q99594). Put plainly: Inhibition of His-tagged TEAD3 (unknown origin) preincubated for 30 mins followed by biotinylated lipid pocket addition and measured after 60 mins by TR-FRET assay.
For assay [5], the target named is T1, Transcriptional enhancer factor TEF-3. Put plainly: Inhibition of His-tagged TEAD4 (unknown origin) preincubated for 30 mins followed by biotinylated lipid pocket addition and measured after 60 mins by TR-FRET assay.
Assay [6] deals with T2, Transcriptional enhancer factor TEF-1. Put plainly: Inhibition of His-tagged TEAD1 (unknown origin) preincubated for 30 mins followed by biotinylated lipid pocket addition and measured after 60 mins by TR-FRET assay.
For assay [7], the system named is NCI-H226. Put plainly: Antiproliferative activity against human NCI-H226 cells assessed as inhibition of cell growth by Cell Titer Glo assay. Type of assay: functional, cell-based. In general terms: Cellular ATP, detected with luciferase, serves as a proxy for viable cell number.
The next assay has as its system SNU-398. Put plainly: Antiproliferative activity against human SNU-398 cells assessed as cell growth inhibition. Type of assay: functional, cell-based.
In a further assay the test system is Huh-7. Put plainly: Antiproliferative activity against human Huh-7 cells assessed as cell growth inhibition incubated for 3 days by MTT assay. Format: functional, cell-based. The settings on record: Huh-7, 72 h.
Assay [8] is described as follows: Antiproliferative activity against human 921 cells assessed as cell growth inhibition. Format: functional, cell-based.
A short description of assay [9]: Antiproliferative activity against human OCI-M1 cells assessed as cell growth inhibition. Type of assay: functional, cell-based.
The target of assay [10] is T3, Transcriptional enhancer factor TEF-4. Put plainly: Binding affinity to human TEAD2 (217 to 447 residues) assessed as thermal stability by measuring change in melting temperature by nano-differential scanning fluorimetry assay.
Assay [11] in a line: Inhibition of TEAD mediating gene expression in HEK293T cells incubated for 24 hrs by luciferase reporter assay. Format: cell-based. Particulars: Homo sapiens, HEK-293T.
The target of assay [12] is T1, Transcriptional enhancer factor TEF-3. Put plainly: Binding affinity to CM5 chip immobilised N-terminal histidine -tagged human TEAD4 (217 to 434 residues) expressed in Escherichia coli (DE3) cells assessed as dissociation constant by SPR assay.
For the next assay, the target named is YAP1-TEAD4 (Homo sapiens, UniProt Q15561). Put plainly: Inhibition of Avi-His-tagged human TEAD4 (217 to 434 residues)/N-biotinylated-N-terminal Cy5-labelled human YAP (60 to 100 residues) incubated for 1 hr by TR FRET assay. Format: protein-complex assay.
Assay [13] in a line: Inhibition of N-terminal His-tagged human TEAD4 (217 to 434 residues) expressed in Escherichia coli BL21-codonPlus (DE3)-RIPL cells/YAP ([…]) (unknown origin) by fluorescence polarisation assay.
Assay [14] has as its target T1, Transcriptional enhancer factor TEF-3. Put plainly: Inhibition of N-terminal His-tagged human TEAD4 (217 to 434 residues) expressed in Escherichia coli BL21-codonPlus (DE3)-RIPL cells by fluorescence polarisation assay.
The nature of assay [15]: Binding affinity to TEAD (unknown origin) assessed as dissociation constant by fluorescence polarisation assay. Also on record: species or system Homo sapiens.
Assay [16] concerns the target Transcriptional enhancer factor TEF-3 (Mus musculus) (UniProt Q62296). Put plainly: Binding affinity to N-terminal His6-tagged recombinant mouse TEAD4 expressed in Escherichia coli BL21 (DE3) cells as change in melting temperature by SYPRO Orange dye based thermal shift assay.
Another assay concerns NCI-H2052. Put plainly: Anti-proliferative activity against human NCI-H2052 expressing NF2 mutant assessed as cell growth inhibition by CellTiter-Glo Luminescent Cell Viability Assay. Format: functional, cell-based.
Assay [17] concerns NCI-H226. Put plainly: Anti-proliferative activity against human NCI-H226 expressing NF2 mutant assessed as cell growth inhibition by CellTiter-Glo Luminescent Cell Viability Assay. Type of assay: functional, cell-based.
For assay [18], the target named is T2, Transcriptional enhancer factor TEF-1. Put plainly: Inhibition of TEAD1 mediating gene expression in human MCF7 cells incubated overnight by luciferase reporter assay. Type of assay: cell-based.

T2 sequence (P28347 whole entry): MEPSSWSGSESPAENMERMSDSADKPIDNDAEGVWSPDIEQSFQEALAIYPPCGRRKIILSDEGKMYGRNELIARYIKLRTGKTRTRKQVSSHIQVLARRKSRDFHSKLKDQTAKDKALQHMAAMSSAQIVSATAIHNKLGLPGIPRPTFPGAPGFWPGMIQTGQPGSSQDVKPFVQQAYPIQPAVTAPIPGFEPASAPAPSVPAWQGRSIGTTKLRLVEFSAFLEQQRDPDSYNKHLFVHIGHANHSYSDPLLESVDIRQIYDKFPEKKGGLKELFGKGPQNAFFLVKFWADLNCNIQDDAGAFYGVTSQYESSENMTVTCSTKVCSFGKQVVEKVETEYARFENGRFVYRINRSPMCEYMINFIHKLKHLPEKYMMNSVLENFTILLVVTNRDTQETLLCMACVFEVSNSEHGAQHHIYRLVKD
T1 sequence (Q15561 whole entry, the tested form may be a part): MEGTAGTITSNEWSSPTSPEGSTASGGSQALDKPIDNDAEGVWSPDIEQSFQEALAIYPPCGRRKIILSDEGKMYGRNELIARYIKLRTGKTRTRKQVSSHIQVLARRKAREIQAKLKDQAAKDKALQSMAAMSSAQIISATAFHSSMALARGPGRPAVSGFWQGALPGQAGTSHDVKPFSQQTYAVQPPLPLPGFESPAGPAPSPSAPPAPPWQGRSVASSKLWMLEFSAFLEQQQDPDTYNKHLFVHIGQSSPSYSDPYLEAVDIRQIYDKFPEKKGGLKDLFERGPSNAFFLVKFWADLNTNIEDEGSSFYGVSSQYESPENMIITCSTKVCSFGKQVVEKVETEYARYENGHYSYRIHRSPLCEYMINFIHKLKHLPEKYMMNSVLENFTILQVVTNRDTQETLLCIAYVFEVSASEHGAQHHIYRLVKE
T3 sequence (Q15562 whole entry): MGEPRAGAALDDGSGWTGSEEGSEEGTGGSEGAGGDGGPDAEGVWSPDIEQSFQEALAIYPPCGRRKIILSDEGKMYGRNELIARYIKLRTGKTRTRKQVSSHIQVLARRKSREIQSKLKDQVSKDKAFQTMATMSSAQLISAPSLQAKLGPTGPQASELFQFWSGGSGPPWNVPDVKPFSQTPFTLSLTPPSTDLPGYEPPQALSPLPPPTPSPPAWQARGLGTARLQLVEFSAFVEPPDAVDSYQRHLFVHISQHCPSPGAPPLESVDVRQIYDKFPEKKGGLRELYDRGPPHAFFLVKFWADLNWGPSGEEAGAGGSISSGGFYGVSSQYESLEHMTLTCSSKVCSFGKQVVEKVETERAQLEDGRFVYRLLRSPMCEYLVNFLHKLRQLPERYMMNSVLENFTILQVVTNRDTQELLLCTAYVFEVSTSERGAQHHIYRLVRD
YAP1-TEAD4, sequence (P46937 whole entry, the tested form may be a part): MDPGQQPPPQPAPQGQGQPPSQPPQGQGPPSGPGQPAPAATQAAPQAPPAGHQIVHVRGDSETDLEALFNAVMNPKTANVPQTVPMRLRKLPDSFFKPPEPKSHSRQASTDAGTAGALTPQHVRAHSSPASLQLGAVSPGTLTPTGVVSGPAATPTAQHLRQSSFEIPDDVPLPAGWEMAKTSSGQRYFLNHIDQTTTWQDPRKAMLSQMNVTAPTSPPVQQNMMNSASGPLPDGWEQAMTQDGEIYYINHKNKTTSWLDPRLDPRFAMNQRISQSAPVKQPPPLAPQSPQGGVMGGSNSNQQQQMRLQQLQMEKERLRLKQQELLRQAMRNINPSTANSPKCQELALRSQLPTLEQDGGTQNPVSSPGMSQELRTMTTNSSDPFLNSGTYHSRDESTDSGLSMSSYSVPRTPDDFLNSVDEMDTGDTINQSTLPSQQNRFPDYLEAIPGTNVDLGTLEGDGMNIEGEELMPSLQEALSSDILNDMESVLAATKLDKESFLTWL
YAP1-TEAD4, sequence (Q15561 whole entry, the tested form may be a part): as the sequence (Q15561 whole entry, the tested form may be a part) above
Transcriptional enhancer factor TEF-5, sequence (Q99594 whole entry): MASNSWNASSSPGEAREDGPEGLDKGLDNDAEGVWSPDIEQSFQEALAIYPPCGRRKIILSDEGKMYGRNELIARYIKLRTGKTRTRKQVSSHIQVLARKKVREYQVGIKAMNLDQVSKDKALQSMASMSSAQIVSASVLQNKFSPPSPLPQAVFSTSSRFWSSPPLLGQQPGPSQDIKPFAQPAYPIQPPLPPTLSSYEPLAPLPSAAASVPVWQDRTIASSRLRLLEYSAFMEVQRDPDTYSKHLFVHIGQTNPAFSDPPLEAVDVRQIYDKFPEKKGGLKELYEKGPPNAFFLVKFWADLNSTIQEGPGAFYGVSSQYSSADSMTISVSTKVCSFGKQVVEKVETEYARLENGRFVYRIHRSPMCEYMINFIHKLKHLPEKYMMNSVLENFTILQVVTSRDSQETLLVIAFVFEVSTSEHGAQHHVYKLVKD
Transcriptional enhancer factor TEF-3 (Mus musculus), sequence (Q62296 whole entry): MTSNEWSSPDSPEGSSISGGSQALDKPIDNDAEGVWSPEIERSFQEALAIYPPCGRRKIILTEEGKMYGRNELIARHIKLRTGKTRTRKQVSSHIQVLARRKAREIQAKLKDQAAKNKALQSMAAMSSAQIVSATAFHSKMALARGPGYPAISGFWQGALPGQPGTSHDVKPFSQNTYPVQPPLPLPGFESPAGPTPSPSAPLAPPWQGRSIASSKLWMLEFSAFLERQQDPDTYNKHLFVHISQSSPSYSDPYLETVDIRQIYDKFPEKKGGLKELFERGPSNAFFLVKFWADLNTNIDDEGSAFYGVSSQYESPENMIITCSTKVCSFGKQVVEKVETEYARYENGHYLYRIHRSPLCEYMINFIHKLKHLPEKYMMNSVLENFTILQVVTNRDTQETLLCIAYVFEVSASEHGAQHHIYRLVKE

Turning to `O=C(O)c1ccccc1Nc1ccc(OC(F)F)cc1`, the pKd in [1] is 4.51.

Regarding `C=CC(=O)NC1CC2(CC(NCc3cccc(C(F)(F)F)c3)C2)C1` (stereo not drawn), the pIC50 in assay [2] was greater than 7.00. As for `C=CC(=O)Nc1cc(/C=C/C2CCC(F)(F)CC2)c(C#N)cn1`, the pIC50 in assay [3], in assay [4], in assay [5] and in assay [6] was greater than 7.00 each time. As for `Cn1cnc(-c2ccc(C3CC(Br)=NO3)cc2Nc2cccc(C(F)(F)F)c2)c1` (stereo not drawn), the pIC50 in the assay on NCI-H226 [7] is greater than 5.70. In the case of `O=C(O)c1ccccc1Nc1ccc(Nc2ccc(C34CC5CC(CC(C5)C3)C4)cc2)cc1`, the pIC50 was 6.02 in the assay on SNU-398, 6.48 with Huh-7, 7.42 in assay [8] and 6.80 in assay [9]. On to `COc1ccc2c(c1)/C(=N/NC(=O)c1nnn(-c3ccccc3N)c1-c1ccc(Cl)c(Cl)c1)C(=O)N2`, for which the ΔTm in assay [10] worked out at 2 °C. For the same compound, the pIC50 in [11] was 5.77. Consider `Nc1ccccc1-n1nnc(C(=O)N/N=C2\C(=O)Nc3ccccc32)c1-c1ccc(Cl)c(Cl)c1`, for which the ΔTm in [10] worked out at 1.4 °C. Moreover, in assay [11], the pIC50 was 5.03.

For the compound `CCC(=O)NC(c1ccc(N(C)C)cc1)c1ccc2cccnc2c1O` (stereo not drawn), in assay [12], the pKd was 5.59. Regarding `FC(F)(F)c1ccc(CN2CCC(C3CC(Br)=NO3)CC2)cc1` (stereo not drawn), the pIC50 with NCI-H226 [7] was greater than 5.70. Take `COCCOc1ccc(C(N)=O)c(-c2c(Cl)c(F)cc3c2[C@H](C)[C@@](CN)(c2ccccc2)O3)c1F`: the pIC50 against YAP1-TEAD4 is greater than 8.70. As to `O=C(O)c1ccccc1Nc1cccc(Br)c1`, in assay [1], the negative logarithm of the Kd (pKd) was 3.63.

Regarding `C=CC(=O)NC12CC(COc3cccc(C(F)(F)F)c3)(C1)C2`, the negative-log IC50 (pIC50) in [2] was greater than 7.00.

In the case of `Cc1ccc2nc(Cn3cc(CN(C(=O)CCC(=O)OC(C)(C)C)C(C(=O)N[C@H]4C[C@@H]5CC[C@@]4(C)C5(C)C)c4c[nH]c5cc(Cl)ccc45)nn3)cn2c1` (stereo partly drawn), the pIC50 was 5.25 in assay [13] and 6.39 in [14]. For `C=CC(=O)NC1CC(COc2cccc(C(F)(F)F)c2)C1` (stereo not drawn), the pIC50 in assay [2] was greater than 7.00.

Take `CC(C)C[C@@H]1NC(=O)[C@H](CCCNC(=N)N)NC(=O)[C@@H](NC(=O)[C@@H]2CCCN2)CSSC[C@@H](C(=O)N[C@@H](CCCCN)C(=O)O)NC(=O)[C@H](Cc2ccccc2)NC(=O)[C@H](CO)NC(=O)[C@H](CC(=O)O)NC(=O)[C@@H]2CCCN2C(=O)[C@H](CC(C)C)NC(=O)[C@H](CCCCN)NC(=O)[C@H](CCCNC(=N)N)NC1=O` (H-PCRLRKLPDSFCK-OH; disulfide 2-12): in assay [15], the pKd is 4.85.

Consider `c1ccc2c(c1)ncn2CN1CCCCC1`, for which the thermal shift (ΔTm) in [16] was determined as 1.8 °C. Take `CNS(=O)(=O)c1ccc(Nc2ccc(C(F)(F)F)cc2)c(-c2cn(C)cn2)c1`: the figures for the pIC50 in the assay with NCI-H2052 and with NCI-H226 [17] were 8.15 and 8.42, respectively.

On to `C=CC(=O)Nc1ccc(-c2noc(C(F)(F)F)n2)c(Cl)c1`, for which the pIC50 in assay [18] was greater than 7.00.

Broadly, the pKd is −log10 of the Kd, conventionally taken in molar units. The pIC50 is the negative decadic logarithm of the IC50, by convention in mol/L. The term ΔTm denotes the shift of the melting midpoint relative to a reference.
